Measured values taken from US20200261375A1, “Use Of (+)-2-Borneol In Preparation Of Drug For Promoting Upregulation Of Expression Of Sphingosine Kinase-1 And/Or BDNF” (SUZHOU PHARMAVAN CO, LTD., priority 2017, published 2020).

How the values were obtained:
Type in all cases: in vivo
[1] = test system: sphingosine kinase-1 (Sphk1); assay: Rat model of focal cerebral ischemia-reperfusion (MCAO), genome-wide expression profiling of brain tissue around the infarct area: Sphk1; details: 2 mg/kg once by tail vein injection 2 hours after ischemia-reperfusion, brain tissue around the infarct area 48 hours after reperfusion, relative to the sham-operated group / model group
Protocol: (§1) Rat model of focal cerebral ischemia-reperfusion A rat model of middle cerebral artery occlusion (MCAD)-induced cerebral ischemia-reperfusion was prepared by thread occlusion of the internal carotid artery. A drug was administered once by tail vein injection 2 hours after ischemia-reperfusion. One dose group was set for (+)-2-borneol, i.e. 2 mg/kg. 48 hours after the cerebral ischemia-reperfusion, about a soybean size of brain tissue around the infarct area was harvested, sent to CapitalBio Technology Inc., Beijing, and subjected to genome-wide expression profiling by using Affymetrix GeneChip Rat Genome 230 2.0 Array Affymetrix Rat (Latin: Rattus norvegicus) Genome 230 2.0 chip.

[2] = test system: mouse model of focal cerebral motor cortex ischemia; assay: Mouse model of focal motor cortex ischemia (photochemical), grid test; details: 3.0, 1.5, 0.75 mg/kg tail vein injection, Day 14, 28, 42 after ischemic injury
Protocol: (§2) Long-term pharmacodynamic assay of (+)-2-borneol in a mouse model of focal motor cortex ischemia A mouse model of focal cerebral motor cortex ischemia was induced by photochemical method. Three dose groups were set for (+)-2-borneol, i.e. 3.0, 1.5, 0.75 mg/kg, respectively. Edaravone at a dose of 9 mg/kg was used as a positive control. A drug was administered once by tail vein injection 2 hours after cortex ischemia, and then administered every 24 hours, for a total of 14 administrations. A grid test was used to determine respectively the failure rate of forelimb on Day 14, Day 28 and Day 42 after ischemic injury; and a cylinder test was used to determine the motor asymmetry index of the affected forelimb and the contralateral forelimb on Day 14, Day 28 and Day 42 after ischemic injury to determine its effect on motor function. After the behavior measurements, 5 animals were randomly selected from each group and killed, and the brain was harvested for Golgi staining to determine the neuronal survival and dendritic richness in the penumbra area.

[3] = test system: brain-derived neurotrophic factor (BDNF); assay: Rat model of focal cerebral ischemia-reperfusion (MCAO), genome-wide expression profiling of brain tissue around the infarct area: BDNF; details: 2 mg/kg once by tail vein injection 2 hours after ischemia-reperfusion, brain tissue around the infarct area 48 hours after reperfusion, relative to the sham-operated group
Protocol: as §1

[4] = test system: mouse model of focal cerebral motor cortex ischemia; assay: Mouse model of focal motor cortex ischemia (photochemical), cylinder test; details: 3.0, 1.5, 0.75 mg/kg tail vein injection, 14 administrations, Day 14, 28, 42 after ischemic injury
Protocol: as §2

[5] = test system: mouse model of focal cerebral motor cortex ischemia; assay: Mouse model of focal motor cortex ischemia (photochemical), Golgi staining of brain; details: Golgi staining after the behavior measurements; 3.0, 1.5, 0.75 mg/kg tail vein injection, 14 administrations
Protocol: as §2

In the case of CC1(C)[C@@H]2CC[C@@]1(C)[C@@H](O)C2 [(+)-2-borneol], the “sphingosine kinase-1 (Sphk1) expression up-regulated” value [1] was 2.64 fold, the “motor function of mice with photochemically induced injury” value ([2]; 14 administrations every 24 hours) was “significantly improve” and the “failure rate of the left forelimb (affected side)” value ([2]; grid test, 14 administrations) was “significant decreases”. For the same compound, the “brain-derived neurotrophic factor (BDNF) expression up-regulated” value [3] was 2.67 fold, the “asymmetry index of both forelimbs” value [4] was “significant decreases” and the “dendritic length around the ischemic area” value [5] was “significant improvements”. For the same compound, the “dendritic spine density around the ischemic area” value [5] was “significant improvements” and the “number of dendritic branches around the ischemic area” value [5] was “significant improvements”.
